pIC50: −log10 of the molar value. Like-named read-outs stand apart in the source and are kept apart here.
Tests used:
[1] = system: mouse TEL-BMX-BaF3 cells (stably expressing TEL-BMX activated kinase); assay: Cell growth, Cell Titer-Glo; format: cell-based; conditions: TEL-BMX-BaF3, 72 hrs, read-out: Half inhibitory concentration IC50
Excerpt: (§1) We further assessed the selectivity of Compound 1 to inhibit the proliferation of cancer cells, by testing the effect of Btk inhibitor on the growth of cancer cells. In the example, we used B-lymphoma cell Ramos, cervical cancer cells HeLa, prostate cancer cells DU145, RV-1 and C4-2, colon cancer cells HCT116, blood cancer cells K562, B-cell lymphoma cells U2932, diffuse large B-cell lymphoma cells OCI-LY10, diffuse histiocytic lymphoma cells SU-DHL-2, diffuse large B-cell lymphoma cells TMD8, human non-small cell lung cancer cells H1975 (expressing EGFR L858R/T790M double mutant gene), human lung adenocarcinoma cells A549 (expressing wild-type EGFR gene), human non-small cell lung cancer cells H460 (expressing wild-type EGFR gene), mantel cell lymphoma (MCL) cells Z-138, EB virus infected human peripheral lymphocyte cells JVM-2, MCL cells REC-1, leukemia cells AML-3, acute promyelocytic leukemia cell line NB-4(Lu+), MDS-RAEB (myelodysplastic syndrome-excessive blasts) cell line SKM-1 human leukemia cell Nomo-1, human B-cell leukemia cell line NALM6, human leukocyte leukemia cells HEL, human T-cell lymphoma cells PF-382, acute myelocytic leukemia (AML) cell line MOLM14, AML cell line MOLM13, human Burkitt's lymphoma cells Namalwa, mouse pro-B cells BaF3, all of where were purchased from ATCC. Also used were mouse TEL-EGFR-BaF3 (stably expressing TEL-EGFR activated kinase), mouse TEL-EGFR/T790-BaF3 cells (stably expressing TEL-EGFR-T790M activated mutant kinase), mouse TEL-EGFR/L858R-BaF3 cells (stably expressing TEL-EGFR-L858R activated mutant kinase), mouse TEL-EGFR/T790/L858R-BaF3 (stably expressing TEL-EGFR-T790M/L858R activated mutant kinase), mouse TEL-BMX-BaF3 cells (stably expressing TEL-BMX activated kinase), mouse TEL-JAK1-BaF3 cells (stably expressing TEL-JAK1 activated kinase), mouse TEL-JAK2-BaF3 cells (stably expressing TEL-JAK2 activated kinase), mouse TEL-JAK3-BaF3 cells (stably expressing TEL-JAK3 activated kinase), where were all established by our laboratory via the following method: the kinase domain sequences of human EGFR, BMX, JAK1, JAK2, JAK3 were amplified respectively by PCR, and these kinase were inserted into the MSCV-Puro vectors with N-terminal TEL segment (Clontech); if there was a mutation, the mutation of the corresponding site was conducted by Site-Directed Mutagenesis kit (Stratagene); the resultants were stably transfected into mouse BaF3 cells by the means of retrovirus, and the IL-3 growth factors were removed, and eventually the EGFR, BMX, JAK1, JAK2, JAK3-transferred protein dependent cell lines were obtained.
(§2) In the example, different concentrations (0.000508 μM, 0.00152 μM, 0.00457 μM, 0.0137 μM, 0.0411 μM, 0.123 μM, 0.370 μM, 1.11 μM, 3.33 μM, 10 μM) of Compound 1 and Compound 19 were added into above cells, and were incubated for 72 hrs. The number of viable cells was determined by quantitating ATP in viable cells using Cell Titer-Glo® (Promega, U.S.) chemiluminescence cell viability assay kit.

[2] = system: mouse TEL-JAK2-BaF3 cells (stably expressing TEL-JAK2 activated kinase); assay: Cell growth, Cell Titer-Glo; format: cell-based; conditions: TEL-JAK2-BaF3, 72 hrs, read-out: Half inhibitory concentration IC50
Excerpt: as §1, §2

[3] = system: mouse TEL-EGFR/L858R-BaF3 cells (stably expressing TEL-EGFR-L858R activated mutant kinase); assay: Cell growth, Cell Titer-Glo; format: cell-based; conditions: TEL-EGFR/L858R-BaF3, 72 hrs, read-out: Half inhibitory concentration IC50
Excerpt: as §1, §2

[4] = system: mouse TEL-EGFR/T790-BaF3 cells (stably expressing TEL-EGFR-T790M activated mutant kinase); assay: Cell growth, Cell Titer-Glo; format: cell-based; conditions: TEL-EGFR/T790-BaF3, 72 hrs, read-out: Half inhibitory concentration IC50
Excerpt: as §1, §2

[5] = system: mouse TEL-EGFR/T790/L858R-BaF3 (stably expressing TEL-EGFR-T790M/L858R activated mutant kinase); assay: Cell growth, Cell Titer-Glo; format: cell-based; conditions: TEL-EGFR/T790/L858R-BaF3, 72 hrs, read-out: Half inhibitory concentration IC50
Excerpt: as §1, §2

[6] = system: mouse TEL-EGFR-BaF3 (stably expressing TEL-EGFR activated kinase); assay: Cell growth, Cell Titer-Glo; format: cell-based; conditions: TEL-EGFR-BaF3, 72 hrs, read-out: Half inhibitory concentration IC50
Excerpt: as §1, §2

mouse pro-B cells BaF3 = assay: Cell growth, Cell Titer-Glo; format: cell-based; conditions: BaF3, 72 hrs (listed twice in Table 3), read-out: Half inhibitory concentration IC50
Excerpt: as §1, §2

[7] = system: mouse TEL-JAK1-BaF3 cells (stably expressing TEL-JAK1 activated kinase); assay: Cell growth, Cell Titer-Glo; format: cell-based; conditions: TEL-JAK1-BaF3, 72 hrs, read-out: Half inhibitory concentration IC50
Excerpt: as §1, §2

[8] = system: mouse TEL-JAK3-BaF3 cells (stably expressing TEL-JAK3 activated kinase); assay: Cell growth, Cell Titer-Glo; format: cell-based; conditions: TEL-JAK3-BaF3, 72 hrs, read-out: Half inhibitory concentration IC50
Excerpt: as §1, §2

[9] = system: SD rat adjuvant arthritis (AA) model; assay: SD rat adjuvant arthritis (AA) model, arthritis index; format: in vivo
Description: In this example, SD rat adjuvant arthritis (AA) model (purchased from the Experimental Animal Center of Anhui Province) was used. PCI-32765 and methotrexate (MTX) were used as positive control (both purchased from Shanghai Chemexpress). The therapeutic effect of Compound 1 on AA rats was studied via the combination of in vivo and in vitro administration. 10 mg/nal of complete Freund's adjuvant (CFA, purchased from Shanghai Chemexpress) was mixed well, and 0.1 ml of CFA was intracutaneously injected into each rat at right posterior plantar to induce inflammation. The normal group was injected with saline via the same method. On the 17th day, the successful modeling male SD rats were randomly divided into 7 groups with 10 rats in each group, namely the model group, the small/medium/large dose of Compound 1 group (12.5, 25, 50 mg/kg/per administration, intraperitoneal injection, one administration per day for 16 days), the Compound 19 group (25 mg/kg/per administration, intraperitoneal injection, one administration per day for 16 days), the positive control PCI-32765 group (25 mg/kg/per administration, intraperitoneal injection, one administration per day for 16 days), the MTX group (0.5 mg/kg, intragastrical, one administration every 3 days, totally 6 times). The rats in the model group were intraperitoneally injected with the same amount of DMSO solution.

pIC50 [1]	pIC50 [2]	pIC50 [3]	pIC50 [4]	pIC50 [5]	pIC50 [6]	pIC50 (mouse pro-B cells BaF3)	pIC50 (mouse pro-B cells BaF3; Mus musculus, BaF3, 72 h)	pIC50 [7]	pIC50 [8]	SMILES	effect on arthritis index of rats compared with the model group ([9]; 12.5 mg/kg intraperitoneal once per day, starting from day 21)	effect on arthritis index of rats ([9]; 12.5 mg/kg intraperitoneal once per day, starting from day 24)	effect on the rat arthritis index ([9]; 25 mg/kg intraperitoneal once per day for 16 days)
7.74	5.68	6.53	6.04	5.80	5.58	5.37	5.38	5.80	5.64	C=CC(=O)Nc1cc(-n2c(=O)ccc3cnc4ccc(-n5cccn5)cc4c32)ccc1C [Compound 1, N-(2-methyl-5-(2-oxo-9-(1H-pyrazol-1-yl)benzo[H][1,6]naphthyridin-1(2H)-yl)phenyl)acrylamide]	significantly reduced	significantly reduce	
< 5.00	< 5.00	< 5.00	< 5.00	< 5.00	< 5.00		< 5.00	< 5.00	< 5.00	CCC(=O)Nc1cc(-n2c(=O)ccc3cnc4ccc(-n5cccn5)cc4c32)ccc1C [Compound 19, N-(2-methyl-5-(2-oxo-9-(1H-pyrazol-1-yl)benzo[H][1,6]naphthyridin-1(2H)-yl)phenyl) propionamide]			little effect

Source: patent publication US9814709B2, “Bruton's tyrosine kinase inhibitor” (HEFEI INSTITUTES OF PHYSICAL SCIENCE, CHINESE ACADEMY OF …, priority 2014, dated 2017)
